In ChEMBL document CHEMBL3774307, “Synthesis, Characterization, and DNA Binding Profile of a Macrocyclic β-Sheet Analogue of ARC Protein” (ACS Med Chem Lett, 2015):
Activity calls are given as the source filed them. The calls are words filed in the database; no cut-off is given here. Positions of bridges follow the written chain, without caps; N, C: chain ends. Non-standard residues stand in square brackets, D forms with d. Residues, ends and D or L forms follow the SMILES beside them. Chains are numbered I, II in the order given. Orn = NCCC[C@H](N)C(=O)O

Experiments:
[1] = Binding affinity to 5'-ATGACTCAT-3' AP-1 dsDNA (unknown origin) by isothermal titration calorimetry
[2] = Binding affinity to 5'-ATGACGTCAT-3' ATF/CREB dsDNA (unknown origin) by isothermal titration calorimetry
[3] = Binding affinity to 5'-GCGAGTAGAGCTTTTTGCTCTACTCGC-3' dsDNA (unknown origin) by tryptophan fluorescence spectroscopic analysis
[4] = Binding affinity to 5'-GCGAGCACAGCTTTTTGCTGTGCTCGC-3' dsDNA (unknown origin) by tryptophan fluorescence spectroscopic analysis
[5] = Binding affinity to 5'-GCGAGTAGAGCTTTTTGCTCTACTCGC-3' dsDNA (unknown origin) by ethidium bromide displacement assay
[6] = Binding affinity to 5'-GCGAGCACAGCTTTTTGCTGTGCTCGC-3' dsDNA (unknown origin) by ethidium bromide displacement assay

| Kd [1] | Kd [2] | Activity [3] | Activity [4] | Kd [5] | Activity [6] | Structure (SMILES) |
| --- | --- | --- | --- | --- | --- | --- |
| 20 µM | 20 µM | – | – | – | – | CC(=O)N[C@@H](CC(=O)O)C(=O)N1CCC[C@H]1C(=O)N[C@@H](C)C(=O)N[C@@H](C)C(=O)N[C@@H](CC(C)C)C(=O)N[C@@H](CCCCN)C(=O)N[C@@H](CCCNC(=N)N)C(=O)N[C@@H](C)C(=O)N[C@@H](CCCNC(=N)N)C(=O)N[C@@H](CC(N)=O)C(=O)N[C@H](C(=O)N[C@@H](CCC(=O)O)C(=O)N[C@@H](C)C(=O)N[C@@H](C)C(=O)N[C@@H](CCCNC(=N)N)C(=O)N[C@@H](CCCNC(=N)N)C(=O)N[C@@H](CO)C(=O)N[C@@H](CCCNC(=N)N)C(=O)N[C@@H](C)C(=O)N[C@@H](CCCNC(=N)N)C(=O)N[C@@H](CCCCN)C(=O)N[C@@H](CC(C)C)C(=O)N[C@@H](CCC(N)=O)C(=O)N[C@@H](CCCNC(=N)N)C(=O)N[C@@H](CC(C)C)C(=O)N[C@@H](CCCCN)C(=O)N[C@@H](CCC(N)=O)C(N)=O)[C@@H](C)O (Ac-DPAALKRARNTEAARRSRARKLQRLKQ-NH2) |
| – | – | Active | Active | 2.1 µM | Active | CC(C)C[C@@H]1NC(=O)[C@H](CC(N)=O)NC(=O)[C@H](Cc2ccccc2)NC(=O)[C@H](CCC(N)=O)NC(=O)[C@H](CCCCN)NC(=O)[C@@H](N)CCCNC(=O)[C@H](Cc2c[nH]c3ccccc23)NC(=O)[C@H](CCCNC(=N)N)NC(=O)[C@H](CC(C)C)NC(=O)[C@H](CC(N)=O)NC(=O)[C@H](Cc2ccccc2)NC(=O)[C@H](CCC(N)=O)NC(=O)[C@H](CCCCN)NC(=O)[C@@H](N)CCCNC(=O)[C@H](Cc2c[nH]c3ccccc23)NC(=O)[C@H](CCCNC(=N)N)NC1=O (I: H-[Orn]KQFNLRW / II: H-[Orn]KQFNLRW; amide I:1-II:C, I:C-II:1) |
